According to US11324709B2, “Fatty acid amides and uses thereof in the treatment of addiction disorder and addiction related conditions” (Yissum Research Development Company of The Hebrew …, priority 2017, dated 2022):
Read-outs that look alike come from different tables or passages of the source.

How the values were obtained:
[1] = system: nicotine-dependent mice; settings: cited from earlier work
[2] = system: Sprague-Dawley rats
[3] = system: mice; settings: cited from earlier work
[4] = system: Sprague-Dawley rats; experiment: Establishment of naloxone precipitated MWD-induced conditioned place aversion (Experiment 2); format: in vivo, rat
Description: Rats (n=22) received two 3-day conditioning cycles in order to attain a naloxone precipitated MWD-induced place avoidance. On Day 1, the floor opposite to the assigned drug floor was paired with a s.c. saline injection. Ten minutes after a saline injection, the rats were placed into the conditioning box with the assigned saline-paired floor for 20 minutes while their locomotion was tracked with Ethovision. On Day 2, the rats received a high dose of morphine (20 mg/kg) s.c., 24 h after the saline conditioning trial the previous day. After the injection, they were placed in an empty shoebox cage and monitored for signs of respiratory distress and stimulated when necessary until they recovered and were returned to the home cage. On Day 3, 24 h post morphine injections, the rats were injected with either VEH (n=12) or OlGly (n=12) 10 min prior to receiving an s.c. injection of naloxone. Ten min later they were placed into the conditioning box with the assigned naloxone-paired floor for 20 minutes while their locomotion was tracked using Ethovision. Four days later, all rats underwent a second 3-day conditioning cycle. Five days following the last naloxone trial, a 10 min drug-free test trial was performed. The test trial consisted of the same procedures as the pre-test trial, but rats were given a s.c. saline injection 10 min prior to the test. […]

[5] = system: Sprague-Dawley rats; experiment: Potential of OlGly to produce a CPP or CPA (place conditioning, Experiment 1); format: in vivo, rat; settings: 5 mg/kg ip
Description: Rats (n=12) received two conditioning trials with oleoyl glycine. On each trial they received intraperitoneal (ip) injections of 5 mg/kg oleoyl glycine or VEH (24 hr apart; counterbalanced order) 20 minutes prior to placement in the conditioning box lined with the grid or hole floor (counterbalanced) for 20 minutes.

[6] = system: ICR mice; experiment: Cannabinoid tetrad behavioral assessment; format: in vivo, mouse; settings: i.p.
Description: (§1) Male C57BL/6 mice (Charles River, Italy) weighing 18-20 g were used for the mild TBI Weight Drop (WD) model. Mice were housed three per cage under controlled illumination (12 h light/dark cycle; light on 6:00 A.M.) and standard environmental conditions (ambient temperature 20-22° C., humidity 55-60%) for at least 1 week before the beginning of experiments. Animal chow and tap water were available ad libitum. Male ICR mice (6-8 weeks old; Harlan, Indianapolis, Ind.) with a body mass of 27-32 g served as subjects in all in vivo pharmacology experiments. Mice were group-housed (four per cage) on a 12/12 light/dark cycle (lights on at 0600 h) and given food and water ad libitum. All animal protocols were approved by the Virginia Commonwealth University Institutional Animal Care and Use Committee, were in accordance with the National Institutes of Health Guide for the Care and Use of Laboratory Animals (Institute of Laboratory Animal Resources, 2011), and by the Animal Ethics Committee of The Second University of Naples, in compliance with Italian (D.L. 116/92) and European Commission (O.J. of E.C. L358/1 18/12/86) regulations on the protection of laboratory animals. All efforts were made to reduce both animal numbers and suffering during the experiments.
[^2H]8AEA, [^2H]52-AG, [^2H]4 PEA, [^2H]4 OEA, [^2H]8 N-arachidonoyldopamine (NADA), [^2H]8AraSer and [^2H]8AraGly were purchased from Cayman Chemicals (MI, USA). OlGly was synthetized in the Mechoulam laboratory and CP55,940 ((−)-cis-3-[2-hydroxy-4-(1,1-dimethylheptyl)phenyl]-trans-4-(3-hydroxypropyl)cyclohexanol) and morphine sulfate were generously provided by NIDA (Rockville, Md.). OlGly and CP55,940 were dissolved in a vehicle solution consisting of ethanol (5% of total volume), alkamuls-620 (Sanofi-Aventis, Bridgewater, N.J.) (5% of total volume), and saline (0.9% NaCl) (90% of total volume). Oleoyl glycine and CP55,940 were given via the intraperitoneal (i.p.) route of administration. (−)-Nicotine hydrogen tartrate [(−)-1-methyl-2-(3-pyridyl)pyrrolidine (+)-bitartrate] and mecamylamine HCl were purchased from Sigma-Aldrich Inc. (St. Louis, Mo., USA). Morphine sulfate [morphine hemi[sulfate pentahydrate]] Nicotine and mecamylamine (2 mg/kg) were dissolved in physiological saline and given via the subcutaneous (s.c.) route of administration in a volume of 10 ml/kg. For the nicotine CPP study, 0.5 mg/kg nicotine dose was used because this dose reliably produces significant CPP in ICR mouse (18). Morphine CPP was performed with 10 mg/kg (s.c.) as recently described (19). For nicotine withdrawal studies, 24 mg/kg/day nicotine or saline was continuously perfused for 14 days using s.c. osmotic minipumps (model 2000; Alzet Corporation, Cupertino, Calif.) that were implanted under isoflurane anesthesia. This prolonged nicotine administration regimen reliably produces significant withdrawal syndrome in the three behavioral paradigms used here.
Mice were acclimated to the test environment for at least 1 h prior to testing for tetrad components: spontaneous activity, catalepsy, antinociception, and hypothermia (7-9). In the locomotor studies, subjects were administered vehicle or drug and 5 min later were placed into clear acrylic boxes (approx. 44.5 cm×22.25 cm×20.0 cm) contained within sound-attenuating cabinets equipped with an LED light source and fans for general air circulation and creation of white noise. The distance traveled (cm) and time spent immobile (s) for each mouse were collected and recorded for 10 min using Fire-i™ digital cameras purchased from Unibrain (San Ramon, Calif., USA) and ANY-maze™ video tracking software purchased from Stoelting Company (Wood Dale, Ill., USA). Mice were assessed for baseline tail withdrawal latencies and body temperature, given an intraperitoneal (i.p.) injection of vehicle or drug (OlGly), and 30 min later assessed in the following order: catalepsy, tail withdrawal test, and body temperature. […]

[7] = system: ICR mice; experiment: Morphine CPP in mice; format: in vivo, mouse; settings: OlGly 30 mg/kg i.p., morphine 10 mg/kg s.c. for 3 days
Description: as §1, with “the experiments. […]” for “the experiments.”

## CCCCCCCC/C=C\CCCCCCCC(=O)NCC(=O)O [OlGly, oleoyl glycine]
[1]
  precipitated withdrawal responses: reduced
  withdrawal induced place aversion: reduced
[2]; 5 mg/kg OlGly i.p. 10 min prior to morphine 10 mg/kg s.c.
  establishment of a morphine-induced place preference: did not modify
[2]; 30 mg/kg OlGly i.p. 10 min prior to morphine 10 mg/kg s.c.
  establishment of a morphine-induced place preference: did not modify
other
  melting point: 93 to 94 °C (dec.)
[3]
  nicotine-induced place preference: interfered
  place preference or place aversion produced by OlGly itself: neither a place preference nor a place aversion
[4]; 5 mg/kg OlGly 10 min prior to naloxone, drug by floor interaction p=0.017
  establishment of the naloxone precipitated MWD-induced CPA: significantly interfered
[4]; pretreatment with 5 mg/kg OlGly, naloxone conditioning trials
  activity during the conditioning trials: did not modify activity
[5]
  motoric effects during conditioning (activity measure) compared to VEH: no motoric effects
[5]; 10 min drug-free test trial, VEH paired floor 232.16 sec
  time spent on the oleoyl glycine paired floor (mean): 299.00 s
[5]; two conditioning trials, drug-free test trial
  preference or aversion for the drug paired floor: did not produce a significant preference or aversion
[6]
  cataleptic responses (bar test): did not elicit cataleptic responses
[6]; FIG. 5A
  antinociception (tail immersion): did not produce
[6]; FIG. 5B
  hypothermia: did not produce
[6]; FIG. 5C
  motor behavior: distance traveled: did not produce
[6]; FIG. 5D
  motor behavior: speed: did not produce
[6]; FIG. 5E
  motor behavior: immobility time: did not produce
[7]
  expression of morphine CPP: did not attenuate
